Reference: patent publication US8864853B2, “Additive mixture for the bactericidal and anticorrosive additization of fuels” (l'Air Liquide Societe Anonyme pour l'etude et …, priority 2009, dated 2014)

Assay: Example 1: visual appearance of diesel with Cu or brass sheet
Type: physicochemical
Settings: evaluation of Example 1; diesel oil with 5% FAME; time delay, concentration-dependent, turbulent flow
Description: Materials used: • 3,3′-methylenebis(5-methyloxazolidine) • brass 63 (100×20×1 mm), Cat. No.: 16-24 from Riegger Industriehandel, Reinbek, Federal Republic of Germany • E-copper ((100×20×1 mm), Cat. No.: 15-54 from Riegger • diesel fuel to EN 590, with 5% (V/V) fatty acid methyl ester
Procedure: The solutions and the metal sheet were each introduced into a 500 ml wide-neck bottle. Solutions 1A-1C were not stirred; solutions 1D-1G were stirred with a magnetic stirrer. The appearance of the solutions was assessed visually.

## CC1CN(CN2COC(C)C2)CO1 (stereo not shown) [3,3′-methylenebis(5-methyloxazolidine)]
  compatibility as an additive to diesel oil in contact with copper or nonferrous metal: incompatible
